Results reported in PMC12683522 (Frontiers in Pharmacology, 2025).

Key:
[1] = Single-dose pharmacokinetics of palbociclib tablets under fasting conditions with rabeprazole pre-treatment; assay type: in vivo, healthy Chinese subjects; conditions: sampling to 96 h after administration
Description: This was a single-center, randomized, open-label, single-dose, two-period crossover bioequivalence study conducted under fasting conditions with rabeprazole pre-treatment. It was carried out at the Phase I Clinical Research Center of Hebei General Hospital in Shijiazhuang, Hebei Province, China, from 12 September 2023, to 27 October 2023. […] Water intake was prohibited from 1 h before to 1 h after each dose (except for breakfast and water used for medication administration). On Day 1, under fasted conditions (at least 10 h), subjects received their seventh dose of rabeprazole and maintained fasting for an additional 4 h. […]
Tmax, t1/2z, elimination rate constant (λz) and percentage of extrapolated residual area (AUC_%Extrap) were the secondary endpoints. […] Cmax and Tmax were determined directly from the observed plasma concentration-time profiles. AUC0-t was calculated using the linear/log trapezoidal method. AUC0‐∞ was determined by formula: AUC0‐∞ = AUC0-t + Ct/λz, where Ct was the last measurable concentration. The slope of the terminal segment of the semi-logarithmic drug-time curve calculated by linear regression is used to obtain λz. t1/2z was calculated as ln2/λz. AUC_%Extrap was determined by formula: AUC_%Extrap = [( AUC0‐∞ - AUC0-t)/ AUC0‐∞ ]×100%. For pharmacokinetic parameters that cannot be calculated due to inapplicable data, they are marked with “-” in the dataset.

[2] = Bioequivalence analysis of test vs reference palbociclib tablets (GLSM ratio, 90% CI); assay type: in vivo, healthy Chinese subjects; conditions: fasting, rabeprazole pre-treatment
Description: After log-transforming Cmax, AUC0−t, and AUC0‐∞ , analysis of variance (using the PROC MIXED method) was performed via a mixed linear effects model, with formulation, period, and sequence treated as fixed effects and subject nested within sequence as a random effect. Throughout the analyses, missing data were, in principle, not imputed. Bioequivalence was assessed using the two one-sided t-tests, and the 90% confidence interval (CI) for the ratio of the geometric least squares means of the two formulations was calculated. If the CI fell entirely within the range of 80.00%–125.00%, the formulations were deemed bioequivalent. Tmax was evaluated using the non-parametric Wilcoxon signed-rank test, and statistical significance was considered when P < 0.05. Pharmacokinetic parameters were calculated using Phoenix WinNonlin (version 8.3), while the remaining statistical analyses and data processing were performed by SAS software (version 9.4). Continuous variables were presented with descriptive statistics, and categorical data were expressed as frequencies and percentages.

[3] = Safety assessment (adverse events, CTCAE v5.0); assay type: in vivo, healthy Chinese subjects
Description: Safety assessments included AEs, SAEs, concomitant medications, laboratory tests, clinical symptoms, vital sign measurements, 12-lead ECG and physical examination results. […] Laboratory tests, physical examinations, and 12-lead ECG were performed at screening and during the follow-up period. All AEs were monitored throughout the study by the research doctors and spontaneously reported by the subjects. AEs were coded using MedDRA (Medical Dictionary for Regulatory Activities: Version 26.1) and summarized according to System Organ Class (SOC) and Preferred Term (PT), including the number and percentage of subjects experiencing AEs and the frequency of AEs. The severity of AEs was graded according to the Common Terminology Criteria for Adverse Events (CTCAE, Version 5.0) issued by the U.S. National Cancer Institute. Missing safety data were labeled as “Missing” in the datasets and were not imputed in the subsequent analyses.

[4] = design: method as in Eser et al., 2022; conditions: intragastric pH above 4.5; ref Eser et al., 2022; cited from earlier work

SMILES: CC(=O)c1c(C)c2cnc(Nc3ccc(N4CCNCC4)cn3)nc2n(C2CCCC2)c1=O [palbociclib]
- share of AUC0‐∞ covered by AUC0-t [1]: 93%
- Intra-subject CV of AUC0-t [2]: 6.14%
- Intra-subject CV of AUC0‐∞ [2]: 5.83%
- Intra-subject CV of Cmax [2]: 9.65%
- severity of AEs ([3]; CTCAE v5.0): mild and reported as grade 1
- adverse events confirmed as adverse reactions ([3]; of 28 adverse events in 17 subjects): 4
- Sum of treatment-emergent AEs, AE count ([3]; safety analysis set): 28
- incidence of AEs ([3]; safety analysis set): 51.5%
- serious adverse events (SAEs) ([3]; safety analysis set): No SAEs occurred
- solubility [4]: < 500 µg/mL
